Article PMC9283742 (Clinical and Translational Science, 2022)
Read-outs that look alike come from different tables or passages of the source. One block for each compound: values may come before it.

What was measured:
[1] = weak base; cited from earlier work
[2] = format: in vivo, human; conditions: for decrease in Cmax: with rabeprazole vs asciminib alone
[3] = In vitro binding constant of asciminib and cyclodextrin; format: physicochemical
[4] = aqueous solution; cited from earlier work
[5] = 40 mg asciminib b.i.d., cited from earlier work
[6] = format: in vitro ADME; conditions: for dissolution rate: 40 mg asciminib, 900 ml, 37°C
[7] = format: in vivo, human; conditions: for AUC(0-inf) / AUC(0-t) / Cmax: human, plasma, 40 mg, adjusted G mean, linear mixed effects model; for AUC(0-inf): AUCinf; for AUC(0-t): AUClast
[8] = cited from earlier work
[9] = administered concomitantly with an itraconazole capsule formulation; cited from earlier work
[10] = oral, Cohort 2, asciminib ± quinidine
[11] = oral, Cohort 3, asciminib ± rifampicin
[12] = oral, Cohort 5, asciminib ± clarithromycin
[13] = po, Cohort 1, asciminib ± itraconazole (oral solution)
[14] = with clarithromycin vs asciminib alone, cohort 5
[15] = with itraconazole (oral solution) vs asciminib alone, cohort 1
[16] = with itraconazole oral solution vs asciminib alone
[17] = with quinidine vs asciminib alone, cohort 2
[18] = with rifampicin vs asciminib alone, cohort 3

AUC(0-inf) ([2]; human, plasma, oral, 40 mg): 9850 ng·h/mL | AUC(0-t) ([2]; human, plasma, oral, 40 mg): 9200 ng·h/mL | Cmax ([2]; human, plasma, oral, 40 mg): 943 ng/mL | AUC(0-inf) ([2]; human, plasma, po, 40 mg): 9850 ng·h/mL | AUC(0-t) ([2]; human, plasma, po, 40 mg): 9200 ng·h/mL | Cmax ([2]; human, plasma, po, 40 mg): 943 ng/mL | half-life ([2]; human, plasma, po, 40 mg): 756 min | decrease in Cmax [2]: 9% | decrease in Cmax ([2]; listed as asciminib): ~ 9% | drop in binding constant ([3]; FaSSIF V2 and 0.3× FeSSIF V2 vs buffer): ~ 65 fold | binding to cyclodextrin ([3]; acidic pH of FaSSGF and high bile component concentration of FeSSIF V2): practically no binding | dissolution rate ([6]; FaSSIF V2 media alone): 87% | flux ([6]; FaSSIF V2 media alone, acceptor volume 12 ml): 1.29 µg/min | calculated flux ([6]; FaSSIF V2 media alone, membrane area 3.88 cm^2): 0.332 μg/min*cm^2 | dissolution rate ([6]; FaSSIF V2 media with added cyclodextrin): 105% | calculated flux ([6]; FaSSIF V2 plus cyclodextrin): 0.071 μg/min*cm^2 | flux rate ([6]; FaSSIF V2 plus cyclodextrin): 0.28 µg/min | decrease of asciminib flux through a lipid membrane ([6]; by cyclodextrin): ~ 80% | AUC(0-inf) [7, 10]: 6750 ng·h/mL | AUC(0-inf) [7, 11]: 5630 ng·h/mL | AUC(0-inf) [7, 12]: 5740 ng·h/mL | AUC(0-t) [7, 10]: 6700 ng·h/mL | AUC(0-t) [7, 11]: 5400 ng·h/mL | AUC(0-t) [7, 12]: 5670 ng·h/mL | Cmax [7, 10]: 618 ng/mL | Cmax [7, 11]: 559 ng/mL | AUC(0-inf) [7, 13]: 7000 ng·h/mL | AUC(0-t) [7, 13]: 6950 ng·h/mL | Cmax [7, 13]: 679 ng/mL | increase in asciminib exposure ([7]; with clarithromycin vs asciminib alone): ~ 35% | increase in AUCinf [7, 14]: 36% | increase in AUClast [7, 14]: 37% | increase in Cmax [7, 14]: 19% | decrease in G mean of AUCinf [7, 15]: 40.2% | decrease in G mean of AUClast [7, 15]: 41.2% | increase in asciminib exposure ([7]; with itraconazole capsule vs asciminib alone): ~ 3% | decrease in asciminib Cmax [7, 16]: ~ 50% | decrease in asciminib exposure (AUC) [7, 16]: ~ 40% | decrease in asciminib Cmax ([7]; with itraconazole oral solution vs asciminib alone, listed as asciminib): 50.1% | decrease in asciminib AUC ([7]; with quinidine vs asciminib alone): 13–16% | decrease in AUCinf [7, 17]: 12.9% | decrease in AUClast [7, 17]: 16.0% | decrease in Cmax [7, 17]: 11.3% | decrease in asciminib AUC (exposure) ([7]; with rifampicin vs asciminib alone): 13–15% | decrease in AUCinf [7, 18]: 14.9% | decrease in AUClast [7, 18]: 12.7% | increase in Cmax [7, 18]: 9% | decrease in asciminib AUC (exposure) ([7]; with rifampicin vs asciminib alone, listed as asciminib): 15%
SMILES: O=C(Nc1ccc(OC(F)(F)Cl)cc1)c1cnc(N2CC[C@@H](O)C2)c(-c2ccn[nH]2)c1 [Asciminib]
pK a [1]: 4.0 | pH-dependent solubility [4]: high at acidic pH and decreases with increasing pH | AUC0–12 h at steady-state, G mean ([5]; Japanese subjects (n = 5), GCV% 22.8): 6450 ng·h/mL | AUC0–12 h at steady-state, G mean ([5]; non-Japanese subjects (n = 8), GCV% 39.4): 5370 ng·h/mL

SMILES: C[C@H]1CN(C2COC2)CCN1c1ccc(Nc2cc(-c3ccnc(N4CCn5c(cc6c5CC(C)(C)C6)C4=O)c3CO)cn(C)c2=O)nc1 [fenebrutinib]
in vitro binding constant with cyclodextrin [8]: 200,000 /M

SMILES: CCc1cc(/C(C)=N/OCc2ccc(C3CCCCC3)c(C(F)(F)F)c2)ccc1CN1CC(C(=O)O)C1 [siponimod]
decrease in exposure [9]: 10%–24%
